Test results reported in PMC9855884, “Glycosylated Lipopeptides—Synthesis and Evaluation of Antimicrobial Activity and Cytotoxicity” (Biomolecules, 2023).
In brackets after ≈: the same amount, converted by molar mass. Where a SMILES comes first, the peptide text is derived from it. The star is where a group is joined. βGlcNAc = CC(=O)N[C@@H]1[C@@H](O)[C@H](O)[C@@H](CO)O[C@H]1*; Stearoyl = CCCCCCCCCCCCCCCCCC(=O)*

Key:
[1] = system: E. faecium ATCC 700221; format: cell-based, Enterococcus faecium; details: ATCC 700221, 18 h
Procedure: (§1) The Acinetobacter baumannii ATCC BAA-1605, Enterococcus faecium ATCC 700221, Klebsiella aerogenes ATCC 13048, Klebsiella pneumoniae ATCC 700603, Pseudomonas aeruginosa ATCC 9027, Staphylococcus aureus ATCC 33591, Candida glabrata ATCC 15126, strains were acquired from the American Type Culture Collection (ATCC). All the strains were stored at −80 °C in Roti-Store cryo vials and were transferred into fresh Mueller–Hinton broth (MHB, Becton Dickinson, Warsaw, Poland) for bacteria or RPMI-1640 (Sigma-Aldrich, Steinheim, Germany) for fungi before the tests and incubated for 24 h at 37 °C. Then, the cultures were seeded on the Mueller–Hinton agar (BioMaxima, Lublin, Poland) or Sabouraud dextrose agar (SDA, BioMaxima, Lublin, Poland) plates, respectively, and incubated as just mentioned. These agar cultures were used for further microbiological assays. Cell densities for all assays were adjusted spectrophotometrically (Multiskan GO Microplate Spectrophotometer, Thermo Fisher Scientific, Vantaa, Finland) at 600 and 530 nm for bacteria and fungi, respectively.
(§2) The MICs were determined using a broth microdilution method according to the Clinical and Laboratory Standard Institute guidelines. For this purpose, initial inoculums of bacteria (5 × 10^5 CFU/mL) in MHB and yeasts (2 × 10^3 CFU/mL) in RPMI-1640 with 2% D-glucose were exposed to the ranging concentration of lipopeptides (1–512 μg/mL) and incubated at 37 °C for 18 h and 24 h, respectively. The experiments were conducted on 96-well microtiter polystyrene plates (Kartell, Italy). The growth was assessed visually after incubation and the MIC was assumed as the lowest peptide concentration at which a noticeable growth of microorganisms was inhibited. All experiments were conducted in triplicate.

[2] = system: K. pneumoniae biofilm; format: cell-based, Klebsiella pneumoniae; details: 24 h
Procedure: as §1
(§3) The MBECs were determined as previously described, using 96-well polystyrene flat-bottom plates. For this purpose, 24 h cultures of microorganisms were diluted to obtain a final density of 5.0 × 10^5 CFU/mL and 2.0 × 10^5 CFU/mL of bacteria and fungi, respectively. Microorganisms were diluted in MHB or RPMI-1640 with 2% D-glucose (bacteria and fungi, respectively). Briefly, 100 µL of cell suspension was added into the test plates. After 24 h of incubation at 37 °C, the wells were rinsed three times with a phosphate buffer saline (PBS, pH 7.4) to remove non-adherent cells. Subsequently, 100 μL of the test compounds over the concentration range (1–512 μg/mL) were added to each well. After 24 h of incubation at 37 °C, 20 μL of a cell viability reagent was added (resazurin, 4 g/L; Sigma Aldrich, St. Louis, MO, USA). The MBEC was read after 1 h. The determined values were recorded as the lowest concentration at which the reduction of resazurin (from blue to pink) […]. All experiments were conducted in triplicate.

[3] = system: A. baumannii biofilm; format: cell-based, Acinetobacter baumannii; details: 24 h
Procedure: as §1, §3

[4] = system: P. aeruginosa ATCC 9027; format: cell-based, Pseudomonas aeruginosa; details: ATCC 9027, 18 h
Procedure: as §1, §2

[5] = system: S. aureus biofilm; format: cell-based, Staphylococcus aureus; details: 24 h
Procedure: as §1, §3

[6] = Determination of peptide hydrophobicity with RP-HPLC (adjusted retention time); format: physicochemical; details: RP-HPLC as measure of hydrophobicity; Waters X-Bridge Shield RP-18 3.0 × 100 mm, 3.5 μm; linear 20–80% acetonitrile in water over 30 min, 0.1% TFA; 0.5 mL/min; 25.0 °C; peptide 1 g/L in water (0.1% TFA); UV 214 nm; triplicate
Procedure: To determine peptide hydrophobicity, a Waters Alliance e2695 system with a Waters 2998 PDA Detector was used. All analyses were carried out on a Waters X-Bridge Shield RP-18 column (3.0 × 100 mm, 3.5 μm particle size, 130 Å pore size). The peptides were dissolved in water (0.1% TFA, v/v) up to a concentration of 1 g/L. UV detection at 214 nm was used, and samples (10 μL) were eluted with a linear 20–80% acetonitrile gradient in deionized water over 30 min at 25.0 ± 0.1 °C. The mobile phase flow rate was 0.5 mL/min. Both eluents contained 0.1% (v/v) of TFA. Each peptide sample was analyzed in triplicate. Maximum standard deviation and coefficient of variation were 0.046 and 0.23%, respectively.
After synthesis and purification, all the products were analyzed with MS and HPLC to confirm purity and identity of the compounds. […] The chromatographic analyses were performed with RP-HPLC; retention time refers to hydrophobicity of the lipopeptide.

[7] = system: S. aureus ATCC 33591; format: cell-based, Staphylococcus aureus; details: ATCC 33591, 18 h
Procedure: as §1, §2

[8] = system: A. baumannii ATCC BAA 1605; format: cell-based, Acinetobacter baumannii; details: ATCC BAA 1605, 18 h
Procedure: as §1, §2

[9] = system: C. glabrata ATCC 15126; format: cell-based, Candida glabrata; details: ATCC 15126, 24 h
Procedure: as §1, §2

[10] = system: C. glabrata biofilm; format: cell-based, Candida glabrata; details: 24 h
Procedure: as §1, §3

[11] = system: K. pneumoniae ATCC 700603; format: cell-based, Klebsiella pneumoniae; details: ATCC 700603, 18 h
Procedure: as §1, §2

[12] = system: P. aeruginosa biofilm; format: cell-based, Pseudomonas aeruginosa; details: 24 h
Procedure: as §1, §3

Row | SMILES | MIC [1] | MBEC [2] | MBEC [3] | MIC [4] | MBEC [5] | Adjusted Retention Time [6] | MIC [7] | MIC [8] | MIC [9] | MBEC [10] | MIC [11] | MBEC [12]
1 | CCCCCCCCCCCCCCCCCC(=O)N[C@@H](CO)C(=O)N[C@@H](CCCNC(=N)N)C(=O)N[C@@H](CCCNC(=N)N)C(N)=O [Peptide 7, C18-SRR-NH2] (Stearoyl-Ser-Arg-Arg-NH2) | 8 µg/mL (≈ 11.7 µM) | 512 µg/mL | 512 µg/mL | 64 µg/mL (≈ 93.7 µM) | 512 µg/mL | 24.78 min | 16 µg/mL (≈ 23.4 µM) | 32 µg/mL (≈ 46.9 µM) | 4 µg/mL (≈ 5.86 µM) | 128 µg/mL | 16 µg/mL (≈ 23.4 µM) | 512 µg/mL
2 | CCCCCCCCCCCCCCCCCC(=O)N[C@@H](CCCNC(=N)N)C(=O)N[C@@H](CCCNC(=N)N)C(=O)N[C@@H](CO[C@@H]1O[C@H](CO)[C@@H](O)[C@H](O)[C@H]1NC(C)=O)C(N)=O [Peptide 18, C18-RRS(GlcNAc)-NH2] (Stearoyl-Arg-Arg-Ser(βGlcNAc)-NH2) | 8 µg/mL (≈ 9.03 µM) | 128 µg/mL | 256 µg/mL | 32 µg/mL (≈ 36.1 µM) | 128 µg/mL | 22.67 min | 16 µg/mL (≈ 18.1 µM) | 32 µg/mL (≈ 36.1 µM) | 4 µg/mL (≈ 4.51 µM) | 128 µg/mL | 32 µg/mL (≈ 36.1 µM) | 512 µg/mL
3 | CCCCCCCCCCCCCCCCCC(=O)N[C@@H](CCCNC(=N)N)C(=O)N[C@@H](CCCNC(=N)N)C(=O)N[C@@H](CO)C(N)=O [Peptide 9, C18-RRS-NH2] (Stearoyl-Arg-Arg-Ser-NH2) | 8 µg/mL (≈ 11.7 µM) | 512 µg/mL | 512 µg/mL | 64 µg/mL (≈ 93.7 µM) | 256 µg/mL | 24.04 min | 8 µg/mL (≈ 11.7 µM) | 32 µg/mL (≈ 46.9 µM) | 4 µg/mL (≈ 5.86 µM) | 128 µg/mL | 16 µg/mL (≈ 23.4 µM) | >512 µg/mL
4 | CCCCCCCCCCCCCCCCCC(=O)N[C@@H](CCCNC(=N)N)C(=O)N[C@@H](CO)C(=O)N[C@@H](CCCNC(=N)N)C(N)=O [Peptide 8, C18-RSR-NH2] (Stearoyl-Arg-Ser-Arg-NH2) | 8 µg/mL (≈ 11.7 µM) | 512 µg/mL | 512 µg/mL | 64 µg/mL (≈ 93.7 µM) | 256 µg/mL | 24.13 min | 16 µg/mL (≈ 23.4 µM) | 64 µg/mL (≈ 93.7 µM) | 4 µg/mL (≈ 5.86 µM) | 128 µg/mL | 32 µg/mL (≈ 46.9 µM) | >512 µg/mL
5 | CCCCCCCCCCCCCCCCCC(=O)N[C@@H](CO[C@@H]1O[C@H](CO)[C@@H](O)[C@H](O)[C@H]1NC(C)=O)C(=O)N[C@@H](CCCNC(=N)N)C(=O)N[C@@H](CCCNC(=N)N)C(N)=O [Peptide 16, C18-S(GlcNAc)RR-NH2] (Stearoyl-Ser(βGlcNAc)-Arg-Arg-NH2) | 16 µg/mL (≈ 18.1 µM) | 256 µg/mL | 512 µg/mL | 32 µg/mL (≈ 36.1 µM) | 256 µg/mL | 22.12 min | 16 µg/mL (≈ 18.1 µM) | 16 µg/mL (≈ 18.1 µM) | 4 µg/mL (≈ 4.51 µM) | 64 µg/mL | 64 µg/mL (≈ 72.2 µM) | 512 µg/mL
